From article PMC6265452, “An auxin controls bacterial antibiotics production” (Nucleic Acids Research, 2018)
Read-outs that look alike come from different tables or passages of the source.

Key:
[1] = biological target: T1, AdmX (Serratia plymuthica, UniProt P0DV33); assay: ITC (also DSF shift of […]°C, in vitro transcription repression); assay type: binding
[2] = biological target: T1, AdmX; assay: as above; assay type: binding; remark: listed apart in the source

T1 sequence (P0DV33 whole entry): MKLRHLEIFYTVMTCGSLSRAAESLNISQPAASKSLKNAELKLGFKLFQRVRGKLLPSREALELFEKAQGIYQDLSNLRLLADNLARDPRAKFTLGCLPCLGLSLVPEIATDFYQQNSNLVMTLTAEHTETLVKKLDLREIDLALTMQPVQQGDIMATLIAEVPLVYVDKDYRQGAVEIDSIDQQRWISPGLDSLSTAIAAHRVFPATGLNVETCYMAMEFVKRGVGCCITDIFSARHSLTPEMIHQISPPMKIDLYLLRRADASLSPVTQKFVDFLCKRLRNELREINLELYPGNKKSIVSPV

SMILES	Kd [1] [µM]	Kd [2] [µM]
O=C(O)Cc1c[nH]c2ccccc12 [IAA, indole-3-acetic acid]	60.9	
O=C(O)C(=O)Cc1c[nH]c2ccccc12 [IPA, indole-3-pyruvic acid]		1.1
